Activity calls are given as the source filed them. No cut-off for these calls is given here. Where a SMILES comes first, the peptide text is derived from it. The star is where a group is joined. X1 = O=[N+]([O-])c1ccc(OCCOCCOCCOCCOCCOCCN*)c([N+](=O)[O-])c1; FITC = O=C1OC2(c3ccc(O)cc3Oc3cc(O)ccc32)c2ccc(NC(=S)*)cc21; X2 = O=[N+]([O-])c1ccc(OCCOCCOCCN*)c([N+](=O)[O-])c1; X3 = O=[N+]([O-])c1ccc(OCCN*)c([N+](=O)[O-])c1; Ahx = NCCCCCC(=O)O
Experiments:
[1] = Binding affinity to CM5 sensor chip immobilized human full-length wild type FGFR1c assessed as dissociation constant by SPR analysis
[2] = test system: L6; assay: Antiproliferative activity against FGF2-induced rat L6 cells stably expressing human full-length FGFR1c assessed as inhibition of cell growth incubated for 36 hrs by CCK-8 assay; type: functional, cell-based
[3] = test system: L6; assay: Antiproliferative activity against FGF2-induced rat L6 cells stably expressing human full-length FGFR1c assessed as inhibition of cell growth at 100 uM incubated for 36 hrs by CCK-8 assay relative to control; type: functional
[4] = test system: L6; assay: Induction of apoptosis in FGF2-induced rat L6 cells stably expressing human full-length FGFR1c assessed as downregulation of BCL-2 expression at 50 uM incubated for 24 hrs by Western blotting analysis; type: functional, cell-based
[5] = test system: L6; assay: Induction of apoptosis in FGF2-induced rat L6 cells stably expressing human full-length FGFR1c assessed as upregulation of cleaved caspase-3 expression at 50 uM incubated for 24 hrs by Western blotting analysis; type: functional, cell-based
[6] = test system: L6; assay: Induction of apoptosis in FGF2-induced rat L6 cells stably expressing human full-length FGFR1c assessed as upregulation of cleaved PARP expression at 50 uM incubated for 24 hrs by Western blotting analysis; type: functional, cell-based
[7] = test system: L6; assay: Binding affinity to FGFR1c in rat L6 cells assessed as increase in green fluorescence signal incubated for 1 hr by Alexa-488 staining based confocal fluorescence microscopic analysis; type: cell-based
[8] = test system: L6; assay: Binding affinity to human full-length wild type FGFR1c stably expressed in rat L6 cells assessed as increase in green fluorescence signal incubated for 1 hr by Alexa-488 staining based confocal fluorescence microscopic analysis; type: cell-based
[9] = test system: NCI-H1581; assay: Binding affinity to FGFR1c in human NCI-H1581 cells assessed as increase in green fluorescence signal incubated for 1 hr by Alexa-488 staining based confocal fluorescence microscopic analysis; type: cell-based
[10] = test system: L6; assay: Binding affinity to human full-length wild type FGFR1c stably expressed in rat L6 cells assessed as increase in fluorescence signal by antibody recruiting based flow cytometry; type: cell-based
[11] = test system: NCI-H1581; assay: Binding affinity to FGFR1c in human NCI-H1581 cells assessed as increase in fluorescence signal by antibody recruiting based flow cytometry; type: cell-based
[12] = test system: L6; assay: Binding affinity to human full-length wild type FGFR1c stably expressed in rat L6 cells assessed as fluorescence intensity at 10 uM by antibody recruiting based flow cytometry; type: cell-based
[13] = test system: NCI-H1581; assay: Binding affinity to FGFR1c in human NCI-H1581 cells assessed as fluorescence intensity at 10 uM by antibody recruiting based flow cytometry; type: cell-based
[14] = test system: L6; assay: Binding affinity to human full-length wild type FGFR1c stably expressed in rat L6 cells assessed as fold change in fluorescence intensity at 10 uM by antibody recruiting based flow cytometry relative to Pep1; type: cell-based
[15] = test system: NCI-H1581; assay: Binding affinity to FGFR1c in human NCI-H1581 cells assessed as fold change in fluorescence intensity at 10 uM by antibody recruiting based flow cytometry relative to Pep1; type: cell-based
[16] = test system: L6; assay: Induction of cell lysis in rat L6 cells stably expressing human full-length FGFR1c at 1 uM incubated for 1 hr by complement dependent cytotoxicity based CCK-8 assay relative to control; type: functional
[17] = test system: NCI-H1581; assay: Induction of cell lysis in human NCI-H1581 cells at 1 uM incubated for 1 hr by complement dependent cytotoxicity based CCK-8 assay relative to control; type: functional
[18] = test system: L6; assay: Induction of cell lysis in rat L6 cells at 1 uM incubated for 1 hr by complement dependent cytotoxicity based CCK-8 assay relative to control; type: functional
[19] = test system: L6; assay: Binding affinity to human full-length wild type FGFR1c stably expressed in rat L6 cells assessed as increase in green fluorescence signal at 2 uM by DAPI staining based confocal […] microscopic analysis; type: cell-based
[20] = Half life in immunized Sprague-Dawley rat at 1.5 mg/kg,SC administration measured upto 24 hrs by fluorescence based microplate reader assay; type: ADME, organism-based; details: in vivo
[21] = Tmax in immunized Sprague-Dawley rat at 1.5 mg/kg,SC administration measured upto 24 hrs by fluorescence based microplate reader assay; type: ADME, organism-based; details: in vivo
[22] = Cmax in immunized Sprague-Dawley rat at 1.5 mg/kg,SC administration measured upto 24 hrs by fluorescence based microplate reader assay; type: ADME, organism-based; details: in vivo
[23] = AUC in immunized Sprague-Dawley rat at 1.5 mg/kg,SC administration measured upto 24 hrs by fluorescence based microplate reader assay; type: ADME, organism-based; details: in vivo
[24] = test system: L6; assay: Binding affinity to FGFR1c in rat L6 cells assessed as increase in green fluorescence signal at 2 uM by DAPI staining based confocal […] microscopic analysis; type: cell-based
[25] = test system: L6; assay: Induction of apoptosis in FGF2-induced rat L6 cells stably expressing human full-length FGFR1c assessed as upregulation of cleaved caspase-3 expression incubated for 24 hrs by Western blotting analysis; type: functional, cell-based
[26] = test system: L6; assay: Induction of apoptosis in FGF2-induced rat L6 cells stably expressing human full-length FGFR1c assessed as upregulation of cleaved PARP expression incubated for 24 hrs by Western blotting analysis; type: functional, cell-based
[27] = test system: NCI-H1581; assay: Antitumor activity against human NCI-H1581 cells xenografted BALB/c mouse model assessed as inhibition of tumor growth at 20 mg/kg,SC administrated once daily for 12 days relative to control; type: functional; details: NCI-H1581, 288 h, time 12 day

For `CC(C)C[C@H](NC(=O)[C@H](C)NC(=O)[C@@H](NC(=O)[C@H](Cc1ccc(O)cc1)NC(=O)[C@H](Cc1c[nH]c2ccccc12)NC(=O)[C@H](CO)NC(=O)[C@H](CO)NC(=O)[C@H](Cc1ccc(O)cc1)NC(=O)[C@H](CCCCN)NC(=O)[C@H](CCCNC(=N)N)NC(=O)[C@H](CO)NC(=O)[C@H](CCCNC(=N)N)NC(=O)[C@@H](N)Cc1ccc(O)cc1)C(C)C)C(=O)N[C@@H](CCCCN)C(=O)N[C@@H](CCCNC(=N)N)C(=O)N[C@@H](CC(C)C)C(=O)N1CCC[C@H]1C(=O)N[C@@H](CCC(=O)O)C(=O)N[C@H](C(=O)NCC(=O)NCC(=O)NCC(=O)NCCOc1ccc([N+](=O)[O-])cc1[N+](=O)[O-])[C@@H](C)O` (H-YRSRKYSSWYVALKRLPETGGG-X3), the Kd [1] was 5.95 µM, the Activity [2] was “Dose-Dependent Effect” and the inhibition at 100 µM [3] was 100%. For the same molecule, the Activity [4] was “Active”, the Activity [5] was “Active” and the Activity [6] was “Active”. For the same molecule, the Activity [7] was “inactive”, the Activity [8] was “Active” and the Activity [9] was “Active”. For the same molecule, the Activity [10] was “Dose-Dependent Effect”, the Activity [11] was “Dose-Dependent Effect” and the Flu intensity [12] was 1.6 10^4No_unit. The Flu intensity [13] was 3.5 10^3No_unit, the fold change (FC) [14] was 180 and the fold change (FC) [15] was 22.4. For the same molecule, the Activity [16] was 29.3%, the Activity [17] was 35.8% and the Activity [18] was “inactive”.

For `CC(C)C[C@H](NC(=O)[C@H](C)NC(=O)[C@@H](NC(=O)[C@H](Cc1ccc(O)cc1)NC(=O)[C@H](Cc1c[nH]c2ccccc12)NC(=O)[C@H](CO)NC(=O)[C@H](CO)NC(=O)[C@H](Cc1ccc(O)cc1)NC(=O)[C@H](CCCCN)NC(=O)[C@H](CCCNC(=N)N)NC(=O)[C@H](CO)NC(=O)[C@H](CCCNC(=N)N)NC(=O)[C@@H](N)Cc1ccc(O)cc1)C(C)C)C(=O)N[C@@H](CCCCN)C(=O)N[C@@H](CCCNC(=N)N)C(=O)N[C@@H](CC(C)C)C(=O)N1CCC[C@H]1C(=O)N[C@@H](CCC(=O)O)C(=O)N[C@H](C(=O)NCC(=O)NCC(=O)NCC(=O)NCCOCCOCCOc1ccc([N+](=O)[O-])cc1[N+](=O)[O-])[C@@H](C)O` (H-YRSRKYSSWYVALKRLPETGGG-X2), the Kd [1] was 5.37 µM, the Activity [2] was “Dose-Dependent Effect” and the inhibition at 100 µM [3] was 100%. For the same molecule, the Activity [4] was “Active”, the Activity [5] was “Active” and the Activity [6] was “Active”. The Activity [7] was “inactive”, the Activity [8] was “Active” and the Activity [9] was “Active”. For the same molecule, the Activity [10] was “Dose-Dependent Effect”, the Activity [11] was “Dose-Dependent Effect” and the Flu intensity [12] was 0.3 10^4No_unit. For the same molecule, the Flu intensity [13] was 0.5 10^3No_unit, the fold change (FC) [14] was 33.4 and the fold change (FC) [15] was 3.6. For the same molecule, the Activity [16] was 25.9%, the Activity [17] was 31.7% and the Activity [18] was “inactive”.

In the case of `CC(C)C[C@H](NC(=O)[C@H](CO)NC(=O)[C@H](C)NC(=O)[C@H](Cc1c[nH]c2ccccc12)NC(=O)[C@H](CCCCN)NC(=O)[C@H](CCCCN)NC(=O)[C@H](CCCNC(=N)N)NC(=O)[C@@H](NC(=O)[C@H](CO)NC(=O)[C@H](CCCNC(=N)N)NC(=O)[C@H](CCCNC(=N)N)NC(=O)CCCCCNC(=S)Nc1ccc2c(c1)C(=O)OC21c2ccc(O)cc2Oc2cc(O)ccc21)C(C)C)C(=O)N[C@@H](Cc1ccc(O)cc1)C(=O)N[C@@H](Cc1ccc(O)cc1)C(=O)N[C@@H](CO)C(=O)N[C@@H](Cc1ccc(O)cc1)C(N)=O` ({FITC-Ahx}-RRSVRKKWASLYYSY-NH2), the Activity [19] is reported as “inactive”.

For H-YRSRKYSSWYVALKRLPET-NH2, the half-life [20] was 2.12 h, the Tmax [21] was 0.58 h and the Cmax [22] was 205 ng/mL. For the same molecule, the AUC at 24 h [23] was 711 ng·h/mL, the Activity [19] was “Active” and the Activity [24] was “inactive”. For the same molecule, the Kd [1] was 1.6 µM, the Activity [2] was “Dose-Dependent Effect” and the inhibition at 100 µM [3] was 100%. For the same molecule, the Activity [25] was “Dose-Dependent Effect”, the Activity [26] was “Dose-Dependent Effect” and the inhibition in vivo at 20 mg/kg [27] was 44.2%.

With `CC(C)C[C@H](NC(=O)[C@H](CO)NC(=O)[C@H](C)NC(=O)[C@H](Cc1c[nH]c2ccccc12)NC(=O)[C@H](CCCCN)NC(=O)[C@H](CCCCN)NC(=O)[C@H](CCCNC(=N)N)NC(=O)[C@@H](NC(=O)[C@H](CO)NC(=O)[C@H](CCCNC(=N)N)NC(=O)[C@@H](N)CCCNC(=N)N)C(C)C)C(=O)N[C@@H](Cc1ccc(O)cc1)C(=O)N[C@@H](Cc1ccc(O)cc1)C(=O)N[C@@H](CO)C(=O)N[C@@H](Cc1ccc(O)cc1)C(=O)N[C@@H](CC(C)C)C(=O)N1CCC[C@H]1C(=O)N[C@@H](CCC(=O)O)C(=O)N[C@H](C(=O)NCC(=O)NCC(=O)NCC(=O)NCCOCCOCCOCCOCCOCCOc1ccc([N+](=O)[O-])cc1[N+](=O)[O-])[C@@H](C)O` (H-RRSVRKKWASLYYSYLPETGGG-X1) the Activity [8] was “inactive”.
